The values below come from publication PMC11873639 (Acta Pharmaceutica Sinica. B, 2024).

Data set [1] concerns LAD2 cells. Description: β-hexosaminidase release induced by C48/80 in LAD2 cells. It is filed as cell-based, Human. As to conditions: for IC50: Homo sapiens, LAD2, read-out: Experimental pIC50 (converted); for antiallergic activity (β-hexosaminidase release inhibition): LAD2 cells, 10 μmol/L.
Data set [2] relates to LAD2 cells. Description: LAD2 cell viability. The data set is classed as cell-based, Human. As to conditions: 10 μmol/L.
The test system of data set [3] is mice. Description: skin toluidine blue staining. The data set is classed as in vivo. The following applies: 10 mg/kg, C48/80.
Data set [4] deals with mice. Description: paw swell and Evans blue extravasation induced by C48/80. It is filed as in vivo. The following applies: gavage, 1, 5 and 10 mg/kg.
The subject of data set [5] is LAD2 cells. As to the kind of experiment: IL-8 release induced by C48/80. It is filed as cell-based, Human. The following applies: LAD2 cells, 1, 5 and 10 μmol/L.
Data set [6] concerns mice. As to the kind of experiment: body temperature after C48/80. The following applies: 10 mg/kg. It is filed as in vivo.
Data set [7] concerns LAD2 cells. Description: histamine release in vitro induced by C48/80. The data set is classed as cell-based, Human. As to conditions: 1 to 10 μmol/L.
Data set [8] has as its system MRGPRX2-HEK293 cells. Description: intracellular Ca2+ mobilization assay. The data set is classed as cell-based. As to conditions: MRGPRX2-HEK293 cells, 1, 5, 10 μmol/L. A general note: Calcium flux is commonly read through the fluorescence of an indicator in the cells.
In data set [9] the test system is C57BL/6 mice. As to the kind of experiment: OVA-induced antigen-induced pulmonary inflammation. The data set is classed as in vivo. The following applies: AIPI mice.
For data set [10], the system named is mice. As to the kind of experiment: serum histamine release in vivo after C48/80. As to conditions: mice, 1, 5 and 10 mg/kg.
In data set [11] the target is T1, MRGPRX2 (Homo sapiens, UniProt Q96LB1).
T1 sequence (Q96LB1 1-330): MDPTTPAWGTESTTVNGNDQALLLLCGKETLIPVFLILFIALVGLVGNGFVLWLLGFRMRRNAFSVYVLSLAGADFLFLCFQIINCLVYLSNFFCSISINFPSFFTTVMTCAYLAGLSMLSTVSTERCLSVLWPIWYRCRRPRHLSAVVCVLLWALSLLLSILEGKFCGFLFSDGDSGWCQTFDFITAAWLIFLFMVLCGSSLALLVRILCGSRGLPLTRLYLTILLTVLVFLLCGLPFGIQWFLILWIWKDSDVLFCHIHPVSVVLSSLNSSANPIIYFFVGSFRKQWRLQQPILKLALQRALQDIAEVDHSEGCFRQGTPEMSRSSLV
The following applies: cited from earlier work.

On to `O=C(Nc1ccccc1)Nc1cc(Br)cc(C(F)(F)F)c1` [Compound A-1023, 1-(3-bromo-5-(trifluoromethyl)phenyl)-3-phenylurea], for which the IC50 in data set [1] was 7.94 µM.
In the case of `O=C(Nc1ccc(C(F)(F)F)cc1)Nc1cccc(Br)c1` [Compound A-2023, 1-(3-bromophenyl)-3-(4-(trifluoromethyl)phenyl) urea], the “cytotoxicity on LAD2 cells” value in data set [2] is “much higher toxicity”. The IC50 in [1] was 1.23 µM.
`O=C(Nc1ccccc1)Nc1ccc(C(F)(F)F)cc1` [Compound A-3023]: the “cytotoxicity on LAD2 cells” value in data set [2] is “attenuated cytotoxicity”. Also, the IC50 in data set [1] was 8.32 µM. Further, the “antiallergic activity (β-hexosaminidase release inhibition)” value in data set [1] (C48/80) is recorded as “much more potent than A-4023”.
`O=C(Nc1ccccc1)Nc1cccc(C(F)(F)F)c1` [Compound A-4023]: in data set [2], the “cytotoxicity on LAD2 cells” value is “attenuated cytotoxicity”.
As for `O=C(Nc1ccccc1)Nc1cccc(Br)c1` [Compound A-5023], the “cytotoxicity on LAD2 cells” value in [2] is reported as “no antiallergic activity or cytotoxicity”. Further, the IC50 in [1] is 21.9 µM. In data set [1] (C48/80), the “antiallergic activity (β-hexosaminidase release inhibition)” value was “no antiallergic activity”.
On to `O=C(Nc1ccc([N+](=O)[O-])cc1)Nc1ccc(C(F)(F)F)cc1` [Compound B-1023], for which the “local skin mast cell deformation and degranulation (toluidine blue)” value in data set [3] was “reduced mast cell deformation and degranulation”. Moreover, the “hindpaw swelling and Evans blue exudation rates” value in [4] is “decreased in a dose-dependent manner”. Moreover, the “IL-8 release induced by C48/80” value in [5] is reported as “reduced the IL-8 release”. In data set [2], the “cytotoxicity on LAD2 cells” value is “nontoxic”. The “body temperature drop induced by C48/80” value in data set [6] is “significantly attenuated the body temperature drop”. The “histamine release from LAD2 cells induced by C48/80” value in data set [7] was “inhibited the histamine release”. Besides, the “C48/80-induced intracellular calcium mobilization” value in data set [8] is on record as “dose-dependently reduced”. Besides, the IC50 in data set [1] is 0.17 µM. Further, in [1] (LAD2 cells, 1, 5 and 10 μmol/L, C48/80), the “inhibition of β-hexosaminidase release” value is “the most potential antiallergic ability”. In addition, in data set [9], the “Th2 cytokine (IL-5 and IL-13) release in BALF” value is listed as “obviously inhibited”; the “airway hyperresponsiveness (AHR) triggered by Mch” value is given as “suppressed the AHR”; the “number of bronchoalveolar lavage fluid (BALF) cells” value was “inhibited”. The “lung lesions (HE, PAS, MASSON staining)” value in data set [9] (5 mg/kg oral) is “exerted anti-AIPI effects”. Also, in data set [9] (10 mg/kg oral), the “lung lesions (HE, PAS, MASSON staining)” value is recorded as “significantly attenuated the pathological changes, with a better effect than that of Dex” and the “serum IgE release” value is “only partially weakened IgE release”. The serum histamine release result in [10] is on record as “reduced in a dose-dependent manner”.
As to `O=C(Nc1ccc(C(F)(F)F)cc1)Nc1cccc([N+](=O)[O-])c1` [Compound B-2023], in data set [1], the IC50 was 0.363 µM.
As to `O=C(Nc1ccc([N+](=O)[O-])cc1)Nc1cccc(C(F)(F)F)c1` [Compound B-3023], the IC50 in data set [1] is 0.832 µM.
Consider `O=C(Nc1cccc([N+](=O)[O-])c1)Nc1cccc(C(F)(F)F)c1` [Compound B-4023], for which the IC50 in data set [1] was 0.288 µM.
For `O=C(Nc1ccc(C(F)(F)F)cc1)Nc1ccc(S(=O)(=O)O)cc1` [Compound B-6023], in [1] (C48/80), the “antiallergic activity (β-hexosaminidase release inhibition)” value is given as “inactivity”.
Turning to `C[C@@H]1C[C@H]2[C@@H]3CCC4=CC(=O)C=C[C@]4(C)[C@@]3(F)[C@@H](O)C[C@]2(C)[C@@]1(O)C(=O)CO` [Dexamethasone, reference compound], in data set [9], the “airway hyperresponsiveness (AHR) triggered by Mch” value is recorded as “suppressed the AHR”. For the same molecule, in data set [9] (dose not given), the “lung lesions (HE, PAS, MASSON staining)” value is recorded as “improved lung lesions” and the “serum IgE release” value is “almost completely inhibited the excessive release of IgE”.
Regarding `CC(C)=CCOc1c2occc2cc2ccc(=O)oc12` [imperatorin], the IC50 in [11] was 50 µM.
In the case of `C[C@H]1O[C@@H](O[C@H]2CC[C@@]3(C)[C@@H](CC[C@]4(C)[C@@H]3C=C[C@]35OC[C@@]6(CCC(C)(C)C[C@H]63)[C@@H](O)C[C@]54C)[C@]2(C)CO)[C@H](O)[C@@H](O[C@@H]2O[C@H](CO)[C@@H](O)[C@H](O)[C@H]2O)[C@H]1O` [saikosaponin A], the IC50 in data set [11] is 640 µM.
